# According to ChEMBL document CHEMBL1201862, “PubChem BioAssay data set” (2004):
#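 All cell lines were grown in 96-well plates and treated with compound for 48 hours. GI50 is the concentration that inhibits growth by half.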 The source made the active and inactive calls. No stated cut-off is given here; in the data, active = GI50 up to about 1.1 µM and inactive = higher.
# Legend:
# Assay in all cases: NCI anticancer screen, dose series, 48 h
# MCF7 = system: MCF7
# RXF 393 = system: RXF 393
# MDA-MB-435 = system: MDA-MB-435
# HCC 2998 = system: HCC 2998
# NCI/ADR-RES = system: NCI/ADR-RES
# ACHN = system: ACHN
# OVCAR-3 = system: OVCAR-3
# TK-10 = system: TK-10
# HCT-116 = system: HCT-116
# HOP-62 = system: HOP-62
# NCI-H460 = system: NCI-H460
# KM12 = system: KM12
# SK-MEL-5 = system: SK-MEL-5
# NCI-H226 = system: NCI-H226
# OVCAR-4 = system: OVCAR-4
# A498 = system: A498
# SNB-75 = system: SNB-75
# MDA-MB-231 = system: MDA-MB-231
# OVCAR-8 = system: OVCAR-8
# 786-0 = system: 786-0
# MDA-N = system: MDA-N
# SN12C = system: SN12C
# SNB-19 = system: SNB-19
# UO-31 = system: UO-31
# SR = system: SR
# COLO 205 = system: COLO 205
# HOP-92 = system: HOP-92
# A549 = system: A549
# SK-OV-3 = system: SK-OV-3
# DU-145 = system: DU-145
# HCT-15 = system: HCT-15
# SF-539 = system: SF-539
# SK-MEL-2 = system: SK-MEL-2
# UACC-62 = system: UACC-62
# MOLT-4 = system: MOLT-4
# LOX IMVI = system: LOX IMVI
# CCRF-CEM = system: CCRF-CEM
# HT-29 = system: HT-29
# NCI-H23 = system: NCI-H23
# PC-3 = system: PC-3
# IGROV-1 = system: IGROV-1
# T47D = system: T47D
# UACC-257 = system: UACC-257
# SW-620 = system: SW-620
# HL-60 = system: HL-60
# SF-295 = system: SF-295
# NCI-H522 = system: NCI-H522
# U-251 = system: U-251
# K562 = system: K562
# Malme-3M = system: Malme-3M
# SK-MEL-28 = system: SK-MEL-28
# SF-268 = system: SF-268
# M14 = system: M14
compound,measurement,setting,value
CC(=O)OCC1OC(n2c(C)c(C(C)=O)c(-c3ccc(Cl)cc3)c(C#N)c2=S)C(OC(C)=O)C(OC(C)=O)C1OC(C)=O (stereo not drawn),GI50,MCF7,> 100 µM (inactive)
same,GI50,RXF 393,> 100 µM (inactive)
same,GI50,MDA-MB-435,> 100 µM (inactive)
same,GI50,HCC 2998,> 100 µM (inactive)
same,GI50,NCI/ADR-RES,> 100 µM (inactive)
same,GI50,ACHN,> 100 µM (inactive)
same,GI50,OVCAR-3,> 100 µM (inactive)
same,GI50,TK-10,> 100 µM (inactive)
same,GI50,HCT-116,> 100 µM (inactive)
same,GI50,HOP-62,> 100 µM (inactive)
same,GI50,NCI-H460,> 100 µM (inactive)
same,GI50,KM12,> 100 µM (inactive)
same,GI50,SK-MEL-5,> 100 µM (inactive)
same,GI50,NCI-H226,> 100 µM (inactive)
same,GI50,OVCAR-4,> 100 µM (inactive)
same,GI50,A498,> 100 µM (inactive)
same,GI50,SNB-75,> 100 µM (inactive)
same,GI50,MDA-MB-231,> 100 µM (inactive)
same,GI50,OVCAR-8,> 100 µM (inactive)
same,GI50,786-0,> 100 µM (inactive)
same,GI50,MDA-N,> 100 µM (inactive)
same,GI50,SN12C,> 100 µM (inactive)
same,GI50,SNB-19,> 100 µM (inactive)
same,GI50,UO-31,> 100 µM (inactive)
same,GI50,SR,> 100 µM (inactive)
same,GI50,COLO 205,> 100 µM (inactive)
same,GI50,HOP-92,> 100 µM (inactive)
same,GI50,A549,> 100 µM (inactive)
same,GI50,SK-OV-3,> 100 µM (inactive)
same,GI50,DU-145,> 100 µM (inactive)
same,GI50,HCT-15,> 100 µM
same,GI50,SF-539,> 100 µM (inactive)
same,GI50,SK-MEL-2,> 100 µM (inactive)
same,GI50,UACC-62,> 100 µM (inactive)
same,GI50,MOLT-4,> 100 µM (inactive)
same,GI50,LOX IMVI,> 100 µM (inactive)
same,GI50,CCRF-CEM,> 100 µM (inactive)
same,GI50,HT-29,> 100 µM (inactive)
same,GI50,NCI-H23,> 100 µM (inactive)
same,GI50,PC-3,> 100 µM (inactive)
same,GI50,IGROV-1,> 100 µM (inactive)
same,GI50,T47D,> 100 µM (inactive)
same,GI50,UACC-257,> 100 µM (inactive)
same,GI50,SW-620,> 100 µM (inactive)
same,GI50,HL-60,> 100 µM (inactive)
same,GI50,SF-295,> 100 µM (inactive)
same,GI50,NCI-H522,> 100 µM (inactive)
same,GI50,U-251,> 100 µM (inactive)
same,GI50,K562,> 100 µM (inactive)
same,GI50,Malme-3M,> 100 µM (inactive)
same,GI50,SK-MEL-28,> 100 µM (inactive)
same,GI50,SF-268,> 100 µM (inactive)
same,GI50,M14,> 100 µM (inactive)
